Columns and labels:
[1] = molecular target: T1, Geranylgeranyl pyrophosphate synthase (Homo sapiens) (UniProt O95749); assay: Inhibition of GGPPS in human MIA PaCa-2 cells assessed as reduction in cell growth at 100 uM incubated for 72 hrs by MTT assay relative to control; type: cell-based
T1 sequence (whole entry): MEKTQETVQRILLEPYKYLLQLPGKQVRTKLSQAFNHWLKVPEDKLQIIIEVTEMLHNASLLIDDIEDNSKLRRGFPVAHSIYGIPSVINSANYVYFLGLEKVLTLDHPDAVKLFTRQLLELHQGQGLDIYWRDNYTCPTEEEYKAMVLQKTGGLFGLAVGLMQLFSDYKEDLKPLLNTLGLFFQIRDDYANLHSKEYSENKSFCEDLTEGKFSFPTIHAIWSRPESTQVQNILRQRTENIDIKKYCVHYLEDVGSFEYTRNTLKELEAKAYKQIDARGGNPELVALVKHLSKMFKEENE

[2] = molecular target: T1, Geranylgeranyl pyrophosphate synthase (Homo sapiens); assay: Inhibition of GGPPS in human MDA-MB-231 cells assessed as reduction in cell growth at 100 uM incubated for 72 hrs by MTT assay relative to control; type: cell-based
[3] = molecular target: T1, Geranylgeranyl pyrophosphate synthase (Homo sapiens); assay: Inhibition of GGPPS in human A549 cells assessed as reduction in cell growth at 100 uM incubated for 72 hrs by MTT assay relative to control; type: cell-based
[4] = molecular target: T2, Farnesyl pyrophosphate synthase (Homo sapiens, UniProt P14324); assay: Inhibition of FPPS (unknown origin)
T2 sequence (P14324 whole entry): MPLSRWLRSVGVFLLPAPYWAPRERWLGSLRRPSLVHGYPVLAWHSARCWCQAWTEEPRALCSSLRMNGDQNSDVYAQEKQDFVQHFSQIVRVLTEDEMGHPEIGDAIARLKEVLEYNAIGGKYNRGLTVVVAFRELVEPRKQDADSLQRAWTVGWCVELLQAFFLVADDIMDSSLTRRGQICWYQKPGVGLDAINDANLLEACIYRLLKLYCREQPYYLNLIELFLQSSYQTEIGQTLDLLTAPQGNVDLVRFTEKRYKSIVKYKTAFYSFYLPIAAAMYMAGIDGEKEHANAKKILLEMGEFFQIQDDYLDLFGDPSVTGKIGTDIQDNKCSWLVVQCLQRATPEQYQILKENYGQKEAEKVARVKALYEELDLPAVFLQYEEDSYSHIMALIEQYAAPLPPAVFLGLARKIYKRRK

[5] = molecular target: T3, Geranylgeranyl pyrophosphate synthase (Homo sapiens, UniProt O95749); assay: Inhibition of recombinant human N- terminal His-tagged GGPPS (1 to 300 residues) expressed in Escherichia coli
T3 sequence (O95749 whole entry): T1 sequence (whole entry)

RPMI-8226 = assay: Antiproliferative activity against human RPMI-8226 cells; type: functional, cell-based

| IC50 [4] | IC50 [5] | Structure (SMILES) | also measured |
| --- | --- | --- | --- |
| – | – | CCCCc1cn(CCCC(O)(P(=O)(O)O)P(=O)(O)O)nn1 | growth inhibition (GI) [1]: < 30%; growth inhibition (GI) [2]: < 30%; growth inhibition (GI) [3]: < 30% |
| 49.6 µM | 0.173 µM | CC(C)=CCC/C(C)=C/CCc1cn(CC(O)(P(=O)(O)O)P(=O)(O)O)nn1 | – |
| – | – | CC(C)=CCCC(C)=CCCc1cn(CC(O)(P(=O)(O)O)P(=O)(O)O)nn1 | EC50 (RPMI-8226): 0.19 µM |
| 33.3 µM | 0.075 µM | CC(C)=CCC/C(C)=C\CCc1cn(CC(O)(P(=O)(O)O)P(=O)(O)O)nn1 | – |
